# Laboratory results as given in PubChem BioAssay AID1845209 (Molecular Pharmacology Branch, DTP, NCI, 2023).
# Test system: NCI-H211 tumor spheroids, viability percent test/control
# Test: Anticancer human tumor NCI-H211 cell line growth inhibition;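 note: spheroids exposed to agents for seven days before readout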
# Conditions: spheroids with HUVEC and MSC; for IC50: curve of first compound; for viability, T/C: stronger effect = lower value
# Procedure, shortened: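 Complex spheroids of malignant cells with endothelial cells and mesenchymal stem cells; agents alone or combined, from near clinical Cmax (or 10 microM if unknown) down in half-log steps, 0.25% DMSO final.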
# [1] = second compound 1 µM, first compound 0.0316 µM
# [2] = second compound 1 µM, first compound 0.1 µM
# [3] = second compound 1 µM, first compound 0.316 µM
# [4] = second compound 1 µM, first compound 1 µM
# [5] = second compound 1 µM, first compound 3.16 µM
# [6] = second compound 1 µM, first compound 10 µM
# [7] = second compound 3.16 µM, first compound 0.0316 µM
# [8] = second compound 3.16 µM, first compound 0.1 µM
# [9] = second compound 3.16 µM, first compound 0.316 µM
# [10] = second compound 3.16 µM, first compound 1 µM
# [11] = second compound 3.16 µM, first compound 3.16 µM
# [12] = second compound 3.16 µM, first compound 10 µM
# [13] = second compound 10 µM, first compound 0.0316 µM
# [14] = second compound 10 µM, first compound 0.1 µM
# [15] = second compound 10 µM, first compound 0.316 µM
# [16] = second compound 10 µM, first compound 1 µM
# [17] = second compound 10 µM, first compound 3.16 µM
# [18] = second compound 10 µM, first compound 10 µM
# [19] = second compound 31.6 µM, first compound 0.0316 µM
# [20] = second compound 31.6 µM, first compound 0.1 µM
# [21] = second compound 31.6 µM, first compound 0.316 µM
# [22] = second compound 31.6 µM, first compound 1 µM
# [23] = second compound 31.6 µM, first compound 3.16 µM
# [24] = second compound 31.6 µM, first compound 10 µM
# [25] = second compound 100 µM, first compound 0.0316 µM
# [26] = second compound 100 µM, first compound 0.1 µM
# [27] = second compound 100 µM, first compound 0.316 µM
# [28] = second compound 100 µM, first compound 1 µM
# [29] = second compound 100 µM, first compound 3.16 µM
# [30] = second compound 100 µM, first compound 10 µM
SMILES,IC50 (second compound 1 µM),IC50 (second compound 3.16 µM),IC50 (second compound 10 µM),IC50 (second compound 31.6 µM),IC50 (second compound 100 µM),"viability, T/C [1]","viability, T/C [2]","viability, T/C [3]","viability, T/C [4]","viability, T/C [5]","viability, T/C [6]","viability, T/C [7]","viability, T/C [8]","viability, T/C [9]","viability, T/C [10]","viability, T/C [11]","viability, T/C [12]","viability, T/C [13]","viability, T/C [14]","viability, T/C [15]",further results
CC(C)n1c(=O)n(C)c2cnc3cc(F)c(-c4ccc(OCCCN5CCCCC5)nc4)cc3c21 + Cn1nnc2c(C(N)=O)ncn2c1=O,662 nM,781 nM,118 nM,< 31.6 nM,< 31.6 nM,70.8%,69.4%,54%,48.1%,28.4%,9.99%,66%,66.1%,63.8%,42.6%,30.7%,8.69%,61.6%,52.2%,35.7%,"viability, T/C [16]: 34.7%; viability, T/C [17]: 20.3%; viability, T/C [18]: 4.95%; viability, T/C [19]: 19.9%; viability, T/C [20]: 16.5%; viability, T/C [21]: 10.7%; viability, T/C [22]: 8.57%; viability, T/C [23]: 5.7%; viability, T/C [24]: 0.75%; viability, T/C [25]: 4.09%; viability, T/C [26]: 3.62%; viability, T/C [27]: 2.44%; viability, T/C [28]: 1.96%; viability, T/C [29]: 1.15%; viability, T/C [30]: 0.49%"
COc1ccc([C@@H](O)c2cc(-c3ncnc4cc(N5CCOCC5)ccc34)c(F)cc2Cl)nn1 + Cn1nnc2c(C(N)=O)ncn2c1=O,6280 nM,5810 nM,3890 nM,< 31.6 nM,< 31.6 nM,102%,102%,90.3%,74.5%,85.3%,31.5%,88.9%,100%,105%,69.4%,73.2%,33.3%,99%,88.6%,84%,"viability, T/C [16]: 71.9%; viability, T/C [17]: 60.7%; viability, T/C [18]: 21.7%; viability, T/C [19]: 41.1%; viability, T/C [20]: 38.5%; viability, T/C [21]: 35.1%; viability, T/C [22]: 34.6%; viability, T/C [23]: 21.1%; viability, T/C [24]: 7.82%; viability, T/C [25]: 21.6%; viability, T/C [26]: 19.3%; viability, T/C [27]: 15.9%; viability, T/C [28]: 8.08%; viability, T/C [29]: 5.69%; viability, T/C [30]: 2.16%"
